The text below walks through data of patent publication US20040127567A1, “Novel methods for treating disorders in which docosahexaenoic acid (DHA) levels are affected” (Beth Israel Deaconess Medical Center, Inc., priority 1998, published 2004).

Where “and” joins values, the source holds several entries; their conditions need not be identical. Equal entries are not always repeated.

What all share (assay type): in vivo, mouse
The test system of data set [1] is CFTR−/− mice. Put plainly: Fatty acid levels (GC/MS) in pancreas and lung cells of CFTR−/− mice fed n-3 fatty acids. The conditions noted are these: for AA level in pancreas: CFTR-/- mice, 40 mg/day for one week (fish oil: dose equivalent to 40 mg DHA, 60 mg EPA, 15 mg LNA), mean ± S.D.
Data set [2] concerns wild-type mice. The experiment in a line: Fatty acid levels (GC/MS) in pancreas and lung cells of wild-type mice fed n-3 fatty acids. The conditions noted are these: for Change in phospholipid/membrane-bound AA (in words) / Change in phospholipid/membrane-bound DHA (in words): 40 mg/day for one week. As to the method: (§1) Mouse pancreatic acinar and lung cell suspensions were prepared from wild type (n=3) and CFTR−/− mice (n=3) by enzymatic and mechanical dissociation. In addition, brain, kidney, heart, spleen, and blood were sonicated in 0.3M sucrose buffer. Membrane lipids were extracted from cell and organ preparations with 20 volumes of chloroform-methanol 2:1 (v/v), transmethylated with 0.5 mL of 0.1 N methanolic-NaOH/BF3 reagent, and the resulting fatty acid methyl esters analyzed by gas chromatography/mass spectrometry (GC/MS). In a different set of experiments, lipids were fractionated by aminopropyl column chromatography into triglycerides, cholesterol esters, and phosphoglycerides and the fatty acid composition of each lipid class determined by a combination of enzymatic hydrolysis, transmethylation, and GC/MS.
Cystic fibrosis (UNC strain) and wild type mice (12-20 grams body weight) were fed with a complete liquid enteral formulation (Peptamen™, Nestle Clinical Nutrition, […], Springville, Utah). DHA content in the Neuromins formulation was 100 mg per 500 mg of formulation. […]
[…] The pellets (0.5 mL for pancreas cell homogenate and 0.6 mL for lung cell homogenate) were extracted with 3 mL of chloroform-methanol 2:1 (v/v). The resulting emulsion was vortexed, centrifuged at 800 g for 3 min., and the lower phase aspirated. The residual upper phase was partitioned again with 3 mL of chloroform-methanol 2:1 (v/v), the lower phase aspirated and both lower phases combined. Fractions were evaporated to dryness, processed for FAME and analyzed by GC-MS. Aliquots of 20 μL of 17:0 in chloroform-methanol 2:1 (v/v) were added to the samples before methylation.
CFTR−/− mice were prepared as described in Example 1. Both CFTR−/− mice and wild type mice were euthanized with carbon dioxide, and cell suspensions from pancreas and lung isolated. Pancreatic acini were prepared by collagenase and mechanical dissociation (Bruzzone et al., (1985) Biochem. J. 226:621-624). A total lung cell suspension was prepared by first flushing contaminating blood by repeated injection of lung with Krebs Henseleit buffer (KHB). Tissue was then extensively minced and incubated for 30 minutes at 37° C. in 10 ml of KHB containing 1,000 units of collagenase (Worthington Biochemical, PA) 2,000 units of DNase, and 0.5 units of thermolysin (Sigma Chemical Co., St. Louis, Mo.). The resulting cell suspension was sedimented once through KHB containing 5% BSA and subsequently washed once in KHB, pH 7.4 containing 32 mM bicarbonate, 10 mM Hepes, and 0.5% BSA. Brain, kidney, and heart were removed and sonicated in 0.5 mL and 0.3M sucrose. A similar approach was used for duodenum and ileum except that mucosal scrapings were used for sonication.
Since the pancreas and the lung are the two primary organs affected in cystic fibrosis, AA and DHA levels in cell preparations of these organs and in wild-type and CFTR−/− mice were quantitated by GC/MS analysis. Lipids were extracted from cell suspensions, tissue homogenates, and blood plasma with 6 volumes of chloroform-methanol (2:1, v/v). The resulting emulsions were centrifuged at 600 g for 3 min and the lower phase containing the lipids was collected. This procedure was repeated twice and the lower phases from the two extractions combined. Aliquots of 30 μL of heptadecanoic acid (17:0) (1 mg/ml) were added to the extracts and used as an internal standard.

Data set [3] is described as follows: Plasma levels of DHA in mice fed DHA. The conditions noted are these: for Plasma level of DHA: values for two different mice. As to the method:
as §1
Cystic fibrosis (UNC strain) and wild type mice (12-20 grams body weight) were fed with a complete liquid enteral formulation (Peptamen™, Nestle Clinical Nutrition, Inc.) supplemented with different quantities of the DHA-containing formulation Neuromins (Nature's Way Products Inc., Springville, Utah). DHA content in the Neuromins formulation was 100 mg per 500 mg of formulation. Mice were fed once a day at about 11 a.m., seven days a week with 20 ml of Peptamen™ supplemented with the various amounts of either Neuramins, free DHA (Sigma Chemical Co., MO) or DHA-ethyl ester (Nu-Check-Prep, Inc. MN) ranging from 0.5 mg/day of DHA to 40 mg/day of DHA.
Plasma levels of DHA in CF and wild-type mice were measured as described above in the method section.
Since the pancreas and the lung are the two primary organs affected in cystic fibrosis, AA and DHA levels in cell preparations of these organs and in wild-type and CFTR−/− mice were quantitated by GC/MS analysis. Lipids were extracted from cell suspensions, tissue homogenates, and blood plasma with 6 volumes of chloroform-methanol (2:1, v/v). The resulting emulsions were centrifuged at 600 g for 3 min and the lower phase containing the lipids was collected. This procedure was repeated twice and the lower phases from the two extractions combined. Aliquots of 30 μL of heptadecanoic acid (17:0) (1 mg/ml) were added to the extracts and used as an internal standard. Samples were evaporated to dryness under nitrogen. The resulting lipids were subsequently transmethylated using the 0.1N methanolic NaOH/boron tri fluoride reagent (Alvarez et al., (1995) Mol. Reprod. Dev. 42:334-346). The resulting fatty acid methyl esters were analyzed by Hewlett Packard GC/MS mounted with a WCOT capillary column (Supelcowax-10, 30 m×0.53 mm I.D., 1 μm film thickness) with initial and final temperatures in the column oven of 150° C. and 250° C., respectively, programmed to increase at a rate of 10° C./min. Fatty acid methyl ester peaks were identified by comparison of retention times of standard fatty acid mixtures and by mass spectrometry, and quantified using methylheptadecanoate as the internal standard. In some studies, the different lipid classes including cholesterol esters, triglycerides, free fatty acids, and glycerolipids, were also fractionated from cell and tissue extracts by aminopropyl column chromatography and the corresponding fatty acid methyl esters prepared and analyzed (Alvarez et al., (1992) J. Chromatogr. B. 577:142-145). In order to determine the fatty acids bound to the sn-2 position of lipids, the phospholipid fraction obtained by aminopropyl column chromatography was incubated at 37° C. for 15 min in 0.5 ml of PBS containing 250 units of phospholipase A2, and the resulting fatty acids methylated and analyzed by GC/MS (Alvarez et al., (1995) Mol. Reprod. Dev. 42:334-346).

Where [4] appears, read: WT mouse fed Peptamen supplemented with DHA.
Setting [5] is: CFTR (-/-) mice, 40 mg DPA per day for 7 days.
Where [6] appears, read: wild-type mice, 40 mg DPA per day for 7 days.
[7] abbreviates: wild-type mice, listed as 18:3n-3.

`CC/C=C\C/C=C\C/C=C\C/C=C\C/C=C\C/C=C\CCC(=O)O` [DHA, docosahexaenoic acid]: the “AA level in pancreas” value in data set [1] turned out to be 4.9 ± 1.8 nmol/mg. In data set [2] (setting [4]), the “20:4n-6 in lung” value was found to be 28 nmoles per total extract, the “20:4n-6 in pancreas” value stood at 82 nmoles per total extract, the “22:4n-6 in lung” value came out at 2 nmoles per total extract and the “22:4n-6 in pancreas” value came out at 1.6 nmoles per total extract. For the same molecule, in data set [2] (setting [4]), the “22:6n-3 in lung” value was 227 nmoles per total extract and the “22:6n-3 in pancreas” value is on record as 200 nmoles per total extract. Further, the “Plasma level of DHA” value in data set [3] (CF mice, 0.5 mg/day DHA) is 41 µg/mL and 40 µg/mL. Moreover, the “Plasma level of DHA” value in data set [3] (CF mice, 2 mg/day DHA) was 99 µg/mL and 77 µg/mL. Also, the “Plasma level of DHA” value in data set [3] (CF mice, 10 mg/day DHA) is 106 µg/mL and 133 µg/mL. For the same molecule, the “Plasma level of DHA” value in data set [3] (CF mice, 40 mg/day DHA) is 230 µg/mL and 263 µg/mL. The “DHA plasma level reached” value in data set [3] (CFTR−/− mice, 35 to 40 mg/day DHA in liquid enteral formulation) is “above 170 μg/ml”. Moreover, the “Plasma level of DHA” value in data set [3] (WT mice, 40 mg/day DHA) is 214 µg/mL and 194 µg/mL. In data set [3] (increasing oral doses of DHA, p=0.5, n=3 (FIG. 6)), the “DHA plasma levels in CFTR−/− versus wild-type mice” value is on record as “not significantly different”.

Turning to `CC/C=C\C/C=C\C/C=C\C/C=C\C/C=C\CCCCCC(=O)O` [DPA, docosapentaenoic acid], in data set [1] (setting [5]), the “20:5n-3 in pancreas” value is 14.6 ± 1.1 (0.1) nmoles of fatty acid per mg of protein and the “22:6n-3 in pancreas” value is 2.0 ± 0.4(1.5) nmoles of fatty acid per mg of protein. Also, the “AA level in pancreas” value in data set [1] was found to be 5.1 ± 0.6 nmol/mg. For the same molecule, in data set [2] (setting [6]), the “20:4n-6 in lung” value is on record as 7.8 ± 0.9 (17.5) nmoles of fatty acid per mg of protein, the “20:4n-6 in pancreas” value is 6.8 ± 0.6 (13.3) nmoles of fatty acid per mg of protein, the “20:5n-3 in lung” value is 8.6 ± 0.8 (0.07) nmoles of fatty acid per mg of protein and the “20:5n-3 in pancreas” value is on record as 7.5 ± 0.8 (0.07) nmoles of fatty acid per mg of protein. In data set [2] (setting [6]), the “22:6n-3 in lung” value is on record as 7.5 ± 0.8 (4.0) nmoles of fatty acid per mg of protein and the “22:6n-3 in pancreas” value was 2.5 ± 0.4 (1.5) nmoles of fatty acid per mg of protein.

Take `CC/C=C\C/C=C\C/C=C\CCCCCCCC(=O)O` [LNA, α-linolenic acid, reference compound]: the “AA level in pancreas” value in data set [1] was 5.5 ± 0.8 nmol/mg. Also, in data set [2] (wild-type mice), the “Change in phospholipid/membrane-bound AA (in words)” value is reported as “decrease in membrane-bound AA” and the “Change in phospholipid/membrane-bound DHA (in words)” value is on record as “increase in membrane-bound DHA”. In addition, in data set [2] (setting [7]), the “Change in phospholipid/membrane-bound AA (in words)” value was “decrease in phospholipid-bound AA” and the “Change in phospholipid/membrane-bound DHA (in words)” value is “increase in phospholipid-bound DHA”.
